Values of other authors, collected in patent EP2338500A1, “Process for producing concentrated and refined actives from tissues and byproducts of Olea europaea with membrane technologies” (Phenofarm S.r.l., priority 2009, dated 2011).

Test system: murine leukemic cells P-388
Conditions: P-388 cells

| SMILES | cytotoxic activity at a concentration ED50 |
| --- | --- |
| C[C@@H]1O[C@@H](O[C@@H]2[C@@H](O)[C@H](OCCc3ccc(O)c(O)c3)O[C@H](COC(=O)/C=C/c3ccc(O)c(O)c3)[C@H]2O)[C@H](O)[C@H](O)[C@H]1O [isoverbascoside] | 10 µg/mL |
| C[C@@H]1O[C@@H](O[C@@H]2[C@@H](O)[C@H](OCCc3ccc(O)c(O)c3)O[C@H](CO)[C@H]2OC(=O)/C=C/c2ccc(O)c(O)c2)[C@H](O)[C@H](O)[C@H]1O [verbascoside] | 26 µg/mL |
